Test results from ChEMBL document CHEMBL1158051, “Russujaponols A-F, illudoid sesquiterpenes from the fruiting body of Russula japonica” (2006).

How the values were obtained:
HT-1080 [1] = experiment: Inhibition of invasion of human HT1080 cells into Matrigel at 0.17 uM; assay type: functional
HT-1080 [2] = experiment: Inhibition of invasion of human HT1080 cells into Matrigel at 3.73 uM; assay type: functional

Row | SMILES | inhibition at 0.17 µM (HT-1080 [1]) | inhibition at 3.73 µM (HT-1080 [2])
1 | COc1cccc2c1C(=O)c1c(O)c3c(c(O)c1C2=O)C[C@@](O)(C(=O)CO)C[C@@H]3O[C@H]1C[C@H](N)[C@H](O)[C@H](C)O1 [DOXORUBICIN] | 52% | –
2 | C[C@H]1C(=O)[C@@H]2C[C@](C)(CO)C[C@]2(O)[C@@]2(C)CC[C@@]12O [RUSSUJAPONOL A] | – | 63%
